Our source for the IC50 values is publication PMC7889647 (Basic & clinical pharmacology & toxicology, 2020).

The test concerns the target hERG1a (human ether-a-go-go-related gene potassium channel, Kv11.1) (Homo sapiens, UniProt Q12809). The class given is cell-based.

hERG1a (human ether-a-go-go-related gene potassium channel, Kv11.1), sequence (Q12809 whole entry): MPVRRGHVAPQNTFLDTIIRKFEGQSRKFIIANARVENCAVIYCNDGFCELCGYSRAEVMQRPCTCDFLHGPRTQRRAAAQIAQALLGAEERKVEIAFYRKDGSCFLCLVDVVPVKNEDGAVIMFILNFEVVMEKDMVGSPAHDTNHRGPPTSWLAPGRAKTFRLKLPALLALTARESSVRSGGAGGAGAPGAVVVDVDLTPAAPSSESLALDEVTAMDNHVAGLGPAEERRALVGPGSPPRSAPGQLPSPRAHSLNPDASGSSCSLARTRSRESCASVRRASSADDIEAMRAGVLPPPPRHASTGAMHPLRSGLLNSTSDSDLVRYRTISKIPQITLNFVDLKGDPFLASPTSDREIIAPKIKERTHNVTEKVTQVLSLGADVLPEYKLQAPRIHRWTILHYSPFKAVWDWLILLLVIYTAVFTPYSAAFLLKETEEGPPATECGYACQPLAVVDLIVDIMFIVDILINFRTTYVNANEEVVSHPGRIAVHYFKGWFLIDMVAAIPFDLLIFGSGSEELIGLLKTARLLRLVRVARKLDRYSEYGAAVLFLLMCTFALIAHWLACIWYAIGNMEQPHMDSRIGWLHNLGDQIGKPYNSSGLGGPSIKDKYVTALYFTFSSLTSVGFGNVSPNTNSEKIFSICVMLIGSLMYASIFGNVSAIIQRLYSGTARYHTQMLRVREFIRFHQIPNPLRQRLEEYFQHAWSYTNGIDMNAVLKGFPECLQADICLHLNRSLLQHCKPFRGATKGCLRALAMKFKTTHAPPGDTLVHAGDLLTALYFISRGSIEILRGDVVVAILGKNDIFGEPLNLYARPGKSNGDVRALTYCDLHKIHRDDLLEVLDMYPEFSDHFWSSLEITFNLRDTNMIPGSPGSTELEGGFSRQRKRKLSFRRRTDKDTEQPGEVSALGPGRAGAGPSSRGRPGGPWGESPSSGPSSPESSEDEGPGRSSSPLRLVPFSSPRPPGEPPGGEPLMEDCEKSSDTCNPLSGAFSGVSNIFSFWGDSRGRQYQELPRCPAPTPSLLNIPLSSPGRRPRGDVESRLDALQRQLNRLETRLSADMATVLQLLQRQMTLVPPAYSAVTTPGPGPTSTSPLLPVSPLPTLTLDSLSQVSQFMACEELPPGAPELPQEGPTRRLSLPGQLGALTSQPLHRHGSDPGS

In turn, `N#Cc1ccc(C(c2ccc(C#N)cc2)n2cncn2)cc1` [letrozole] returned an IC50 of 373 nM.

As a reminder, the IC50 is the point on the concentration scale where inhibition reaches its midpoint.
